Patent publication US20070213324A1 (priority 2006, published 2007)

Tests used:
plasma proteins = conditions: cited from earlier work
[1] = test system: functional recovery of patients with a sprained ankle; test: Phase II functional recovery
[2] = test system: pain produced by a sprained ankle; test: Phase II evaluation of pain by visual analogue scale (VAS); type: in vivo, human; conditions: for time from administration to analgesic effect (VAS, significant versus placebo): carisoprodol 200 mg / meloxicam 15 mg, sprained ankle
[3] = test system: production of thromboxane in platelets; conditions: cited from earlier work
[4] = test system: platelet aggregation induced by collagen or arachidonic acid; conditions: cited from earlier work
[5] = cited from earlier work
[6] = cited from earlier work; remark: listed apart in the source
[7] = in vivo
[8] = Phase I bioavailability study, single dose and steady state; conditions: carisoprodol, any condition
Procedure: Sixty healthy male volunteers participated in the study and were divided into four treatment groups. […] The study was prospective, single-blind, parallel, longitudinal, and comparative with a placebo and with the components of the combination administered separately, with randomized distribution into 4 groups.
A pharmacokinetic study was conducted on day 1 and day 14 so that bioavailability could be clearly identified for single dose and for multiple doses, and so that the bioequivalence of the combined product could be compared to the individual products.

## Cc1cnc(NC(=O)C2=C(O)c3ccccc3S(=O)(=O)N2C)s1 [Meloxicam, 4-hydroxy-2-methyl-N-(5-methyl-2-thiazolyl)-2H-1,2-benzothiazine-3-carboxamide-1,1-dioxide]
Plasma proteins
  bound to plasma proteins: 99.5%
[1]; 1440 minutes
  p versus placebo, functional recovery: 0.037
[1]; in vivo
  time at which functional recovery is statistically different from placebo: 24 h
[1]; sprained ankle
  time from administration to functional recovery (significant versus placebo): 1440 min
[2]
  time from administration to analgesic effect (VAS, significant versus placebo): up to 360 minutes
[2]; listed as meloxicam
  time from administration to analgesic effect (VAS, significant versus placebo): 360 min
[2]; minute 360
  p versus placebo, VAS: 0.021
[3]
  production of thromboxane in platelets: significantly reduce
[4]
  inhibition of platelet aggregation: does not inhibit
[5]; after administration, enterohepatic circulation
  time of second maximum concentration peak: 12 to 14 h
[5]; days of dosage
  time to steady state: 5 days
[5]; in vivo
  effect of food intake on absorption: not altered
[5]; orally
  absorbed after administration: 89%
[6]; methanol
  solubility in methanol: very slightly soluble
[6]; strong acids and bases
  solubility in strong acids and bases: higher solubility
[6]; water
  solubility in water: practically insoluble in water

## CCCC(C)(COC(N)=O)COC(=O)NC(C)C (stereo not shown) [Carisoprodol]
[7]
  blood pressure: decrease in blood pressure
  changes in the physiological tests (reaction time, awareness): did not produce any changes
  sedative effect: MINIMENTAL test before versus after administration: no significant differences
[5]; in vivo
  half-life: 8 h
  time of initial musculoskeletal relaxant effect: 30 to 45 min
[8]
  bioequivalence, combined versus on its own: no bioequivalence in any condition
